Key:
[1] = DRUGMATRIX: ATPase, Na+/K+ enzyme inhibition (substrate: ATP); type: tissue-based, Sus scrofa, Heart; details: Not Active = under 50% inhibition at 10 µM
[2] = biological target: T1, C-C chemokine receptor type 4 (Homo sapiens, UniProt P51679); type: cell membranes, Membrane; details: chem-1; note: in other assays of this panel Not Active means under 50% inhibition at 10 µM
T1 sequence (P51679 whole entry): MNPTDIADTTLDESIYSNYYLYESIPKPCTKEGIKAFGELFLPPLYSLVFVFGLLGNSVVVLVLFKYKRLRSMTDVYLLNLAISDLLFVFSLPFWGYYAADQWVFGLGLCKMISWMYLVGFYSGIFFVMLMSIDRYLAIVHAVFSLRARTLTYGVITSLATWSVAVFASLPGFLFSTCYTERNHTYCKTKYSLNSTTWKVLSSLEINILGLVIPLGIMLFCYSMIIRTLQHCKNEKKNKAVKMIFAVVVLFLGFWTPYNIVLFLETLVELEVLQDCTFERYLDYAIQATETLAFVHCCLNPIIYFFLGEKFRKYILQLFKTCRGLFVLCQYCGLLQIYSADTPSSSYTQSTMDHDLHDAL

[3] = biological target: C-C chemokine receptor type 5 (Homo sapiens, UniProt P51681); type: cell membranes, Membrane; details: hek293; note: in other assays of this panel Not Active means under 50% inhibition at 10 µM
C-C chemokine receptor type 5, sequence (P51681 whole entry): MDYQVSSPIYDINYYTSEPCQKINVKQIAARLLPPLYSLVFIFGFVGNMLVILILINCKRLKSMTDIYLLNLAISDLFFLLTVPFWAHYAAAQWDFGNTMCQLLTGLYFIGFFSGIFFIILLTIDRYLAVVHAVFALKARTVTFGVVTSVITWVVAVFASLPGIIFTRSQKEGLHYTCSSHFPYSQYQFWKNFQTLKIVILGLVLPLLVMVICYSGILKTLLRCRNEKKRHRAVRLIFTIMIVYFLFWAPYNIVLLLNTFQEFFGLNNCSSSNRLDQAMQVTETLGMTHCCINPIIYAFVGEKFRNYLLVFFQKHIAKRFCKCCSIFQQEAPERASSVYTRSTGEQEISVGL

[4] = biological target: T2, Amine oxidase [flavin-containing] A (Homo sapiens, UniProt P21397); test: DRUGMATRIX: Monoamine Oxidase MAO-A enzyme inhibition (substrate: Kynuramine); design: species or system BTI-TN-5B1-4; details: Not Active = under 50% inhibition at 10 µM
T2 sequence (P21397 whole entry): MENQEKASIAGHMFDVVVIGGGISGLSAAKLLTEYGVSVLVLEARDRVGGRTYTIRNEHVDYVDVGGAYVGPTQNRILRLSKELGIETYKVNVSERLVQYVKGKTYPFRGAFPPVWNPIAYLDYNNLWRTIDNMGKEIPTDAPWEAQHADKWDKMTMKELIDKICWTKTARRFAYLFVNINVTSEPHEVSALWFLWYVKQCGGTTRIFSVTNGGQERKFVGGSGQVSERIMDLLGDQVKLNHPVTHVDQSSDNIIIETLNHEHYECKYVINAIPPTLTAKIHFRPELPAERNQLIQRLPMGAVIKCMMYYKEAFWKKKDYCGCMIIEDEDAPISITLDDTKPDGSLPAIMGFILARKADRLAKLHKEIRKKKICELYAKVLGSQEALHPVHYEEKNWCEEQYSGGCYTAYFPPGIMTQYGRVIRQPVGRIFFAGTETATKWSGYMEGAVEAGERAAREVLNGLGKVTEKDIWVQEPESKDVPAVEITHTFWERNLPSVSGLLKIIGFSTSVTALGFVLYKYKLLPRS

[5] = biological target: T3, Neuropeptide Y receptor type 2 (Homo sapiens, UniProt P49146); type: cell membranes, KAN-TS, Membrane; details: kan-ts; note: in other assays of this panel Not Active means under 50% inhibition at 10 µM
T3 sequence (P49146 whole entry): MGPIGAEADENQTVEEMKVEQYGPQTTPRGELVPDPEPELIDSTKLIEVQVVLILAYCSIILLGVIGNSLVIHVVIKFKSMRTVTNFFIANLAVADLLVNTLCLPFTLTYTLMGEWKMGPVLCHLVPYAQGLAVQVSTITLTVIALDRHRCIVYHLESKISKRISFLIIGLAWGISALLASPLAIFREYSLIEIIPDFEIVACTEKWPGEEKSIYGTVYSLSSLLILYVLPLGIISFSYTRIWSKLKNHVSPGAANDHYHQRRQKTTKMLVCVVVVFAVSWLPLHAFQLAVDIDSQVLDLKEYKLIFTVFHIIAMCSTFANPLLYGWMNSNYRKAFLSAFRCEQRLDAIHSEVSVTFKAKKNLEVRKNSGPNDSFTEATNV

[6] = biological target: T4, 5-hydroxytryptamine receptor 1A (Rattus norvegicus, UniProt P19327); type: cell membranes, CHO-K1, Membrane; details: cho-k1; note: in other assays of this panel Not Active means under 50% inhibition at 10 µM
T4 sequence (P19327 whole entry): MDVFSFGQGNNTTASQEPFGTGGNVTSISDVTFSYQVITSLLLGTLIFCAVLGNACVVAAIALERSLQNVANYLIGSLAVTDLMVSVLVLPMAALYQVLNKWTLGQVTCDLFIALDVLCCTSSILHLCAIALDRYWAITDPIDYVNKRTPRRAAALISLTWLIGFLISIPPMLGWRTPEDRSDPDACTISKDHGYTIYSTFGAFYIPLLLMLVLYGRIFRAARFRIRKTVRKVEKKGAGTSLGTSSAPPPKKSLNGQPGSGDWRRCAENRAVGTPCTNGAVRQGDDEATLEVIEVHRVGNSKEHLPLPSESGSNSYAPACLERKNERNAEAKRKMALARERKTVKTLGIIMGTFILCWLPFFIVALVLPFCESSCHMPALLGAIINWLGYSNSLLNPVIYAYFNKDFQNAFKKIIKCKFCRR

Cytochrome P450 1A2 = biological target: T5, Cytochrome P450 1A2 (Homo sapiens, UniProt P05177); details: bti-tn-5b1-4; note: in other assays of this panel Not Active means under 50% inhibition at 10 µM
T5 sequence (P05177 whole entry): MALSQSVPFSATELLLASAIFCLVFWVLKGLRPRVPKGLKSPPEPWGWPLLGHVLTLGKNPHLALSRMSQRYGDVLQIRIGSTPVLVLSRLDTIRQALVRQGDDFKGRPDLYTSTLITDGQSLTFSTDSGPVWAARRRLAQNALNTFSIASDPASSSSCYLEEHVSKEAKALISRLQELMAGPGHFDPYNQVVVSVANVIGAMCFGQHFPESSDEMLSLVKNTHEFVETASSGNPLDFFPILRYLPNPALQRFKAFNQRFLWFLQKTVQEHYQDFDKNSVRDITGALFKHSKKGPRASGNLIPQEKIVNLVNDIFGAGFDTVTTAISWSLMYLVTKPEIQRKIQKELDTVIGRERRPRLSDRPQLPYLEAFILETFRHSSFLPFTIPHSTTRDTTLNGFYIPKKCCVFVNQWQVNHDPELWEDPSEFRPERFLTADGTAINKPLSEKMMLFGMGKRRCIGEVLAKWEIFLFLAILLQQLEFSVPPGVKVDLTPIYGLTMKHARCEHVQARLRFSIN

| Compound | IC50 [1] | Ki [1] | IC50 [2] | IC50 [3] | IC50 ([4]; bti-tn-5b1-4) | IC50 [5] | IC50 [6] | IC50 (Cytochrome P450 1A2) | Ki (Cytochrome P450 1A2) | IC50 ([4]; read-out: IC50) |
| --- | --- | --- | --- | --- | --- | --- | --- | --- | --- | --- |
| O=C(O)c1cccnc1Nc1cccc(C(F)(F)F)c1 [NIFLUMIC ACID] | Not Active | Not Active | Not Active | Not Active | Not Active | Not Active | Not Active | Not Active | Not Active | – |
| O=C(N/N=C/c1ccc([N+](=O)[O-])o1)c1cc([N+](=O)[O-])cc([N+](=O)[O-])c1O [NIFURSOL] | Not Active | Not Active | Not Active | Not Active | Not Active | Not Active | Not Active | Not Active | Not Active | – |
| COC(=O)Nc1nc2ccc(C(=O)c3cccs3)cc2[nH]1 [NOCODAZOLE] | Not Active | Not Active | Not Active | Not Active | – | Not Active | Not Active | Not Active | Not Active | 24.1 µM |
| C#CC1(O)CC[C@H]2[C@@H]3CCC4=CC(=O)CC[C@@H]4[C@H]3CC[C@@]21CC (stereo not given in full) [NORGESTREL] | Not Active | Not Active | Not Active | Not Active | Not Active | Not Active | Not Active | Not Active | Not Active | – |
| COC(=O)Nc1nc2ccc([S+]([O-])c3ccccc3)cc2[nH]1 (stereo not given) [OXFENDAZOLE] | Not Active | Not Active | Not Active | Not Active | Not Active | Not Active | Not Active | Not Active | Not Active | – |
| CC(=O)O[C@H]1C(=O)[C@@]2(C)[C@H]([C@H](OC(=O)c3ccccc3)[C@]3(O)C[C@H](OC(=O)[C@H](O)[C@@H](NC(=O)c4ccccc4)c4ccccc4)C(C)=C1C3(C)C)[C@]1(OC(C)=O)CO[C@@H]1C[C@@H]2O [PACLITAXEL] | Not Active | Not Active | Not Active | Not Active | Not Active | Not Active | Not Active | Not Active | Not Active | – |
| C[n+]1ccc(-c2cc[n+](C)cc2)cc1.[Cl-].[Cl-] [PARAQUAT DICHLORIDE] | Not Active | Not Active | Not Active | Not Active | Not Active | Not Active | Not Active | Not Active | Not Active | – |
| C[n+]1ccccc1/C=N/O.[Cl-] [PRALIDOXIME CHLORIDE] | Not Active | Not Active | Not Active | Not Active | Not Active | Not Active | Not Active | Not Active | Not Active | – |
| COc1cc2nc(N3CCN(C(=O)c4ccco4)CC3)nc(N)c2cc1OC [PRAZOSIN] | Not Active | Not Active | Not Active | Not Active | Not Active | Not Active | Not Active | Not Active | Not Active | – |
| C[C@]12C=CC(=O)C=C1CC[C@@H]1[C@@H]2[C@@H](O)C[C@@]2(C)[C@H]1CC[C@]2(O)C(=O)CO [PREDNISOLONE] | Not Active | Not Active | Not Active | Not Active | Not Active | Not Active | Not Active | Not Active | Not Active | – |
